The target of one assay is T1, PI3K-C2α (Homo sapiens, UniProt O00443).
T1 construct: made in house; host or cells: Sf9 insect cells (baculovirus, pAcGex vector)
The experiment in a line: PI 3-kinase lipid kinase assay with recombinant GST-PI3K-C2α, PtdIns as substrate. The format is biochemical.

A further assay addresses p110α (UniProt P32871). In words: PI 3-kinase lipid kinase assay with recombinant GST-p110α, PtdIns as substrate. It is filed as biochemical.

Where two headings read alike, the source gives them in different places.

T1 sequence (O00443 148-1686): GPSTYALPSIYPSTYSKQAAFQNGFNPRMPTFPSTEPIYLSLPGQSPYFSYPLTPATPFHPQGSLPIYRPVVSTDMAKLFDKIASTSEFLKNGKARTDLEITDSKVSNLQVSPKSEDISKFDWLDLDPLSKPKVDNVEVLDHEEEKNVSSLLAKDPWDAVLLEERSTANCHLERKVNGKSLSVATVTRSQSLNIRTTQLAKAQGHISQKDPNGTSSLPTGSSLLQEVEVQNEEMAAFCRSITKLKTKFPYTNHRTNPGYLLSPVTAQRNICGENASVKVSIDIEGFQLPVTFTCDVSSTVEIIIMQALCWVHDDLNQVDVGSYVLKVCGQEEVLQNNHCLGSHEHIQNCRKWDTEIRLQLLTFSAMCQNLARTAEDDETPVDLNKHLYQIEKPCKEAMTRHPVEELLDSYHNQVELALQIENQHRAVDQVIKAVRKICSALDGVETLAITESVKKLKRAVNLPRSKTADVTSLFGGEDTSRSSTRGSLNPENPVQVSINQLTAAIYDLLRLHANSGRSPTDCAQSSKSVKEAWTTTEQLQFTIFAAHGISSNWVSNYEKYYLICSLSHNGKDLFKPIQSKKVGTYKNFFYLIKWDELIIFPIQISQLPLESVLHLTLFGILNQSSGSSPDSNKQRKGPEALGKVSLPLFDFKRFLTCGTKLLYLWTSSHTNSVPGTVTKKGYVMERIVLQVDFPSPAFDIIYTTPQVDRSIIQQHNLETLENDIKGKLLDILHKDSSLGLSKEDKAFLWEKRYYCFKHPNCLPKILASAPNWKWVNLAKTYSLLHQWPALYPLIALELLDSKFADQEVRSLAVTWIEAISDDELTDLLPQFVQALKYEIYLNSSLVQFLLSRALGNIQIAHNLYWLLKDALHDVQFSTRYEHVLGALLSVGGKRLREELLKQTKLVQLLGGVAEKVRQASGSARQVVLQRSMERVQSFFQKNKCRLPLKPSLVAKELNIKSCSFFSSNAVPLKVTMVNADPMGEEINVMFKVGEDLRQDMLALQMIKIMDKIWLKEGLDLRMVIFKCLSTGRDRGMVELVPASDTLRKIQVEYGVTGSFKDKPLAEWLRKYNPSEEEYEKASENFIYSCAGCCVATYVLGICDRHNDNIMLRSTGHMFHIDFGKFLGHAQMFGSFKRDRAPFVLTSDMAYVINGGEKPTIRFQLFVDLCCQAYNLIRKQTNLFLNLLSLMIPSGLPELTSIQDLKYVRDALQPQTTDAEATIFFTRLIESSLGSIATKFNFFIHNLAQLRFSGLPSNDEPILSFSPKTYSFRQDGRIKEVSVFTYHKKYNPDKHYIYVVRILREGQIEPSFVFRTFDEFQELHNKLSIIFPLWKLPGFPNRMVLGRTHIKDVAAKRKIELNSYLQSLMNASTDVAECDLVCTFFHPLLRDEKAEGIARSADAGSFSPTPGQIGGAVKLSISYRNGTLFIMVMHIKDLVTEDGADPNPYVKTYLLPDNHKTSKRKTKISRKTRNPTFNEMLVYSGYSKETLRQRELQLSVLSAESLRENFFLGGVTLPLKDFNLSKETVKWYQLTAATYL
Experimental for PI3K-C2α: Typically, PI 3-kinase assays were performed in a total volume of 50 μl containing 20 mM Hepes pH7.4. 100 mM NaCl, 0.1 mM EGTA, 0.1% β-mercaptoethanol, and 200 μM phosphoinositide. After preincubating sonicated lipid with sample for 10 minutes, the reactions were initiated upon the addition of 2.5 mM MgCl2, 100 mM ATP (0.2 μCiγ[^32 P] ATP). Assays were incubated at 30° C. for 20 minutes and terminated with acidified chloroform:methanol. The extracted lipid products were analysed by thin layer chromatography using Silica gel 60 plates and chloroform:methanol:4M ammonium hydroxide (45:35:10) for assays examining phosphorylation of Ptdlns. When separations of PtdIns 3P, PtdIns (3,4) P2 and PItdIns (3,4,5) P3 was required, propan-1-ol: 2M acetic acid (65:35) was used. Phosphorylated lipids were visualised by either autoradiography or by phosphoimage analysis (Molecular Dynamics).
The enzymatic activity and substrate specificity were investigated and compared to that of GST-p110α expressed in the same system.
(§1) The effect of these inhibitors on the lipid kinase activity of PI3K-C2α was examined, using PtdIns as a substrate, in the presence of increasing concentrations of each inhibitor.
Experimental for p110α: Typically, PI 3-kinase assays were performed in a total volume of 50 μl containing 20 mM Hepes pH7.4. 100 mM NaCl, 0.1 mM EGTA, 0.1% β-mercaptoethanol, and 200 μM phosphoinositide. After preincubating sonicated lipid with sample for 10 minutes, the reactions were initiated upon the addition of 2.5 mM MgCl2, 100 mM ATP (0.2 μCiγ[^32 P] ATP). Assays were incubated at 30° C. for 20 minutes and terminated with acidified chloroform:methanol. The extracted lipid products were analysed by thin layer chromatography using Silica gel 60 plates and chloroform:methanol:4M ammonium hydroxide (45:35:10) for assays examining phosphorylation of Ptdlns. When separations of PtdIns 3P, PtdIns (3,4) P2 and PItdIns (3,4,5) P3 was required, propan-1-ol: 2M acetic acid (65:35) was used. Phosphorylated lipids were visualised by either autoradiography or by phosphoimage analysis (Molecular Dynamics). Assays were linear with respect to time and enzyme addition.
as §1

On to `O=c1cc(N2CCOCC2)oc2c(-c3ccccc3)cccc12` [LY294002, 2-(4-morpholinyl)-8-phenyl-4H-1-benzopyran-4-one], for which the IC50 (commonly the concentration needed to halve the response being measured) at PI3K-C2α came out at 20000 nM. Besides, the “difference in sensitivity between PI3K-C2α and p110α” value at PI3K-C2α (LY294002, PI3K-C2α less sensitive than p110α) is “approximately one order of magnitude”. Moreover, the “concentration giving maximal attenuation of PI3K-C2α lipid kinase activity” value on PI3K-C2α (LY294002, PtdIns substrate) was 2 mM. Also, the “concentration giving maximal inhibition of p110α” value at p110α (LY294002, FIG. 5B) was 300 µM.

Consider `COC[C@H]1OC(=O)c2coc3c2[C@@]1(C)C1=C(C3=O)[C@@H]2CCC(=O)[C@@]2(C)C[C@H]1OC(C)=O` [Wortmannin], for which the IC50 at PI3K-C2α (Wortmannin, PtdIns substrate, FIG. 5A) was determined as 200 nM; at p110α (read-out: IC50 of p110α lipid kinase activity, Wortmannin, FIG. 5A), 3 nM.

Source of the values: patent US6770467B2, “Screening method for ligands with class II P13 kinase modulating activity” (Ludwig Institute for Cancer Research, priority 1997, dated 2004).
